Experimental data taken from patent US6893630B2, “Anti-microbial antiperspirant products” (Unilever Home & Personal Care USA, division of Conopco, Inc., priority 2000, dated 2005).
Entries after “also recorded” stand apart in the source; their conditions may differ. Where two headings read alike, the source gives them in different places.

What was measured:
[1] = test system: Staphylococcus epidermidis; assay: Anti-microbial performance of chelators: growth inhibition in semi-synthetic medium by optical density; assay type: cell-based; conditions: for "micro-molar active" criterion (significant inhibition of growth, at least 30%, at 3×10^−6 mol.dm^−3 or less): S. epidermidis; for Inhibition of growth (%): chelator 3×10^−6 mol.dm^−3, 16 hours at 37° C., optical density at 600 nm vs control medium
Description: An axillary isolate of Staphylococcus epidermidis was grown overnight in 100 ml of tryptone soy broth (TSB, Oxoid Ltd). 10 ml of this culture was taken and subjected to centrifugation. The separated cells were re-suspended in 10 ml of phosphate buffered saline and the centrifugation procedure repeated. The washed cells were re-suspended in 10 ml of phosphate buffered saline to give the inoculum. 100 μl of the inoculum was added to 100 ml of semi-synthetic medium (SSM) containing (NH4)2SO4 (0.066 g), MgSO4.7H2O (0.012 g), KCl (0.1 g), KH2PO4 (0.27 g), Na2HPO4 (1.43 g), thiamin (0.1 mg), biotin (0.05 mg), Peptone P (0.05 g), and glucose (2.0 mmole) which had been previously sterilised by autoclaving at 121° C. for 20 minutes. The pH of the SSM was adjusted to 6.7 with HCl after sterilisation, prior to addition of the inoculum. This control medium was utilised in all of the in vitro inhibition studies. The chelator-containing test media were prepared in a similar manner, the chelator being introduced at a concentration of 3×10^−6 mol.dm^−3 before the pH adjustment with HCl.
100 μl of the S. epidermidis inoculum was introduced into the control medium and into test media containing the chelators indicated in Table 2. The cultures were inoculated at 37° C. (with agitation at 200 rpm) for 16 hours, and the optical density of the cultures measured at 600 nm to determine the extent of bacterial growth. By comparison of the optical density of the culture in the presence of chelating agent, to that of the control, the percentage inhibition of growth was established. (Optical density measurements were made on 1 in 4 dilutions of the cultures with 0.9% (w/v) saline, using 1 cm path length cuvettes, on a Pharmacia Biotech Ultrospec 200 Spectrophotometer.)

relevant micro-organism = conditions: cited from earlier work

Row | SMILES | "micro-molar active" criterion (significant inhibition of growth, at least 30%, at 3×10^−6 mol.dm^−3 or less) [1] | Inhibition of growth (%) [1] [%] | MIC (relevant micro-organism; stated by contrast, no source given) | MIC (relevant micro-organism; literature values)
1 | O=C(O)CN(CC(=O)O)[C@@H]1CCCC[C@H]1N(CC(=O)O)CC(=O)O (relative stereo) [CDTA, trans-1,2-diaminocyclohexane-N,N,N′,N′-tetraacetic acid] | exclude; also recorded: fail this criterion | 12.3 |  | 
2 | O=C(O)CN(CCN(CC(=O)O)CC(=O)O)CCN(CC(=O)O)CC(=O)O [DTPA, diethylenetriaminepentaacetic acid] | capable of achieving significant inhibition; also recorded: meet the criterion | 56.5 |  | 
3 | O=C(O)CN(CCN(CC(=O)O)CC(=O)O)CC(=O)O [EDTA, ethylenediaminetetraacetic acid] | exclude; also recorded: fail this criterion | 0 |  | 
4 | O=C(O)CN(CCN(CCN(CC(=O)O)CC(=O)O)CC(=O)O)CCN(CC(=O)O)CC(=O)O [TTHA, triethylenetetraaminehexaacetic acid] | capable of achieving significant inhibition; also recorded: meet the criterion | 56.3 |  | 
5 | CCO [ethanol] |  |  | greater than 1 mg.ml^−1 | 
6 | CC(C)=CCCC(C)=CCCC(C)=CCO [farnesol, 3,7,11-trimethyldodeca-2,6,10-trienol] |  |  |  | ca. 25 μg.ml^−1
7 | Oc1cc(Cl)ccc1Oc1ccc(Cl)cc1Cl [triclosan, 2′,4,4′-trichloro,2-hydroxy-diphenyl ether] |  |  |  | 0.01 to 10 µg/mL
